How the values were obtained:
Format in all cases: in vivo
[1] = tested on: upland rice (Oryza sp., var. Tebonnet, RICE); test: Post-emerge test, crop safety; conditions: rating scale 0-100 (0 no damage, 100 complete death), 14 days after application
Summary of the method: (§1)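 Each test used a mechanized track sprayer delivering 187 l/ha of acetone solution at 15–1000 g ai/ha. Post-emerge foliage at 2–3 leaves was treated with added 0.25% v/v non-ionic surfactant and bottom-watered only. Injury was assessed on day 14, where 100 means total kill.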

[2] = tested on: field corn (Zea mays L., var. Dekalb 535, CORN); test: Post-emerge test, crop safety; conditions: rating scale 0-100 (0 no damage, 100 complete death), 14 days after application
Summary of the method: as §1

[3] = tested on: barnyardgrass (Echinochloa crus-galli, ECHCG); test: Post-emerge test, greenhouse herbicide activity screening; conditions: rating scale 0-100 (0 no damage, 100 complete death), 14 days after application
Summary of the method: (§2)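 Plants grown in 10 cm pots of sandy loam mix received acetone-dissolved compounds through a moving flat-fan nozzle. Doses ranged from 15 to 1000 g ai/ha. Pre-emerge pots were seeded one day earlier, post-emerge pots 8–21 days earlier. Fourteen days on, each pot was graded 0–100 for damage.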

[4] = tested on: sicklepod (Cassia obtusifolia, CASOB); test: as above; conditions: rating scale 0-100 (0 no damage, 100 complete death), 14 days after application
Summary of the method: as §2

[5] = tested on: velvetleaf (Abutilon theophrasti, ABUTH); test: as above; conditions: rating scale 0-100 (0 no damage, 100 complete death), 14 days after application
Summary of the method: as §2

[6] = tested on: johnsongrass (Sorghum halepense, SORHA); test: as above; conditions: rating scale 0-100 (0 no damage, 100 complete death), 14 days after application
Summary of the method: as §2

[7] = tested on: lambsquarters (Chenopodium album, CHEAL); test: as above; conditions: rating scale 0-100 (0 no damage, 100 complete death), 14 days after application
Summary of the method: as §2

[8] = tested on: ivyleaf morningglory (Ipomoea hederacea, IPOHE); test: as above; conditions: rating scale 0-100 (0 no damage, 100 complete death), 14 days after application
Summary of the method: as §2

[9] = tested on: redroot pigweed (Amaranthus retroflexus, AMARE); test: as above; conditions: rating scale 0-100 (0 no damage, 100 complete death), 14 days after application
Summary of the method: as §2

[10] = tested on: green foxtail (Setaria viridis, SETVI); test: as above; conditions: rating scale 0-100 (0 no damage, 100 complete death), 14 days after application
Summary of the method: as §2

[11] = tested on: large crabgrass (Digitaria sanguinalis, DIGSA); test: as above; conditions: rating scale 0-100 (0 no damage, 100 complete death), 14 days after application
Summary of the method: as §2

[12] = tested on: upland rice (Oryza sp., var. Tebonnet, RICE); test: Pre-emerge test, crop safety; conditions: rating scale 0-100, 14 days after application
Summary of the method: (§3)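 Fourteen days after spraying, crop and weed injury was graded visually from 0, no effect, to 100, every plant dead. Test substances were dissolved in acetone and applied at 15–1000 g ai/ha with a flat-fan nozzle. Application was either pre-emergence, one day after sowing, or post-emergence at the 2–3 leaf stage.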

[13] = tested on: field corn (Zea mays L., var. Dekalb 535, CORN); test: Pre-emerge test, crop safety; conditions: rating scale 0-100, 14 days after application
Summary of the method: as §3

[14] = tested on: barnyardgrass (Echinochloa crus-galli, ECHCG); test: Pre-emerge test, greenhouse herbicide activity screening; conditions: rating scale 0-100, 14 days after application
Summary of the method: as §2

[15] = tested on: sicklepod (Cassia obtusifolia, CASOB); test: as above; conditions: rating scale 0-100, 14 days after application
Summary of the method: as §2

[16] = tested on: velvetleaf (Abutilon theophrasti, ABUTH); test: as above; conditions: rating scale 0-100, 14 days after application
Summary of the method: as §2

[17] = tested on: johnsongrass (Sorghum halepense, SORHA); test: as above; conditions: rating scale 0-100, 14 days after application
Summary of the method: as §2

[18] = tested on: lambsquarters (Chenopodium album, CHEAL); test: as above; conditions: rating scale 0-100, 14 days after application
Summary of the method: as §2

[19] = tested on: ivyleaf morningglory (Ipomoea hederacea, IPOHE); test: as above; conditions: rating scale 0-100, 14 days after application
Summary of the method: as §2

[20] = tested on: green foxtail (Setaria viridis, SETVI); test: as above; conditions: rating scale 0-100, 14 days after application
Summary of the method: as §2

[21] = tested on: large crabgrass (Digitaria sanguinalis, DIGSA); test: as above; conditions: rating scale 0-100, 14 days after application
Summary of the method: as §2

[22] = tested on: redroot pigweed (Amaranthus retroflexus, AMARE); test: as above; conditions: rating scale 0-100, 14 days after application
Summary of the method: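 Compounds in acetone were track-sprayed at 187 l/ha, 15–1000 g ai/ha, onto sandy loam pots. Pre-emerge seeds were sown one day before spraying, with surface watering afterwards. Post-emerge plants were at the 2–3 leaf stage and sprayed with 0.25% v/v non-ionic surfactant. Injury was rated 0–100 at 14 days.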

COc1c(Cl)cc(F)c(-n2c(=O)cc(C(F)(F)F)n(C)c2=O)c1CC(Cl)C(=O)OCC(Br)CBr (single isomer, unassigned) [14-31]
Post-emerge phytotoxicity rating RICE (crop damage) ([1]; Rate 63 g ai/ha): 0
Post-emerge phytotoxicity rating RICE (crop damage) ([1]; Rate 250 g ai/ha): 0
Post-emerge phytotoxicity rating CORN (crop damage) ([2]; Rate 63 g ai/ha): 10
Post-emerge phytotoxicity rating CORN (crop damage) ([2]; Rate 250 g ai/ha): 50
Post-emerge Herbicidal Activity, phytotoxicity rating ECHCG ([3]; Rate 63 g ai/ha): 100
Post-emerge Herbicidal Activity, phytotoxicity rating ECHCG ([3]; Rate 250 g ai/ha): 100
Post-emerge Herbicidal Activity, phytotoxicity rating CASOB ([4]; Rate 63 g ai/ha): 50
Post-emerge Herbicidal Activity, phytotoxicity rating CASOB ([4]; Rate 250 g ai/ha): 50
Post-emerge Herbicidal Activity, phytotoxicity rating ABUTH ([5]; Rate 63 g ai/ha): 90
Post-emerge Herbicidal Activity, phytotoxicity rating ABUTH ([5]; Rate 250 g ai/ha): 100
Post-emerge Herbicidal Activity, phytotoxicity rating SORHA ([6]; Rate 63 g ai/ha): 0
Post-emerge Herbicidal Activity, phytotoxicity rating SORHA ([6]; Rate 250 g ai/ha): 20
Post-emerge Herbicidal Activity, phytotoxicity rating CHEAL ([7]; Rate 63 g ai/ha): 70
Post-emerge Herbicidal Activity, phytotoxicity rating CHEAL ([7]; Rate 250 g ai/ha): 90
Post-emerge Herbicidal Activity, phytotoxicity rating IPOHE ([8]; Rate 63 g ai/ha): 10
Post-emerge Herbicidal Activity, phytotoxicity rating IPOHE ([8]; Rate 250 g ai/ha): 70
Post-emerge Herbicidal Activity, phytotoxicity rating AMARE ([9]; Rate 63 g ai/ha): 90
Post-emerge Herbicidal Activity, phytotoxicity rating AMARE ([9]; Rate 250 g ai/ha): 100
Post-emerge Herbicidal Activity, phytotoxicity rating SETVI ([10]; Rate 63 g ai/ha): 0
Post-emerge Herbicidal Activity, phytotoxicity rating SETVI ([10]; Rate 250 g ai/ha): 50
Post-emerge Herbicidal Activity, phytotoxicity rating DIGSA ([11]; Rate 63 g ai/ha): 95
Post-emerge Herbicidal Activity, phytotoxicity rating DIGSA ([11]; Rate 250 g ai/ha): 100
Pre-emerge phytotoxicity rating, crop damage RICE ([12]; 63 g ai/ha): 0
Pre-emerge phytotoxicity rating, crop damage RICE ([12]; 250 g ai/ha): 0
Pre-emerge phytotoxicity rating, crop damage CORN ([13]; 63 g ai/ha): 0
Pre-emerge phytotoxicity rating, crop damage CORN ([13]; 250 g ai/ha): 30
Pre-emerge herbicidal activity, phytotoxicity rating ECHCG ([14]; 63 g ai/ha): 0
Pre-emerge herbicidal activity, phytotoxicity rating ECHCG ([14]; 250 g ai/ha): 0
Pre-emerge herbicidal activity, phytotoxicity rating CASOB ([15]; 63 g ai/ha): 0
Pre-emerge herbicidal activity, phytotoxicity rating CASOB ([15]; 250 g ai/ha): 0
Pre-emerge herbicidal activity, phytotoxicity rating ABUTH ([16]; 63 g ai/ha): 0
Pre-emerge herbicidal activity, phytotoxicity rating ABUTH ([16]; 250 g ai/ha): 70
Pre-emerge herbicidal activity, phytotoxicity rating SORHA ([17]; 63 g ai/ha): 0
Pre-emerge herbicidal activity, phytotoxicity rating SORHA ([17]; 250 g ai/ha): 0
Pre-emerge herbicidal activity, phytotoxicity rating CHEAL ([18]; 63 g ai/ha): 40
Pre-emerge herbicidal activity, phytotoxicity rating CHEAL ([18]; 250 g ai/ha): 50
Pre-emerge herbicidal activity, phytotoxicity rating IPOHE ([19]; 63 g ai/ha): 0
Pre-emerge herbicidal activity, phytotoxicity rating IPOHE ([19]; 250 g ai/ha): 50
Pre-emerge herbicidal activity, phytotoxicity rating SETVI ([20]; 63 g ai/ha): 0
Pre-emerge herbicidal activity, phytotoxicity rating SETVI ([20]; 250 g ai/ha): 0
Pre-emerge herbicidal activity, phytotoxicity rating DIGSA ([21]; 63 g ai/ha): 0
Pre-emerge herbicidal activity, phytotoxicity rating DIGSA ([21]; 250 g ai/ha): 90
Pre-emerge herbicidal activity, phytotoxicity rating AMARE ([22]; 63 g ai/ha): 70
Pre-emerge herbicidal activity, phytotoxicity rating AMARE ([22]; 250 g ai/ha): 100

From patent US6355799B1, “Substituted benzene compounds, process for their preparation, and herbicidal and defoliant compositions containing them” (ISK Americas Incorporated, priority 1997, dated 2002)
